# Data as given in article PMC12457078, “Inhibition of soluble epoxide hydrolase in endotoxin induced pig lung injury” (Frontiers in Pharmacology, 2025).
# Where “and” joins values, the source holds several entries; their conditions need not be identical. Equal entries are not always repeated. Entries after “also recorded” stand apart in the source; their conditions may differ.
# Columns and labels:
# [1] = liver microsomal assay (metabolic stability); assay type: in vitro ADME, pig
# Protocol: To further characterize the inhibitors with regard to suitability for administration in pigs, a microsomal assay was used to determine metabolic stability ([Ackley et al., 2004]) for a subset of eight inhibitors chosen for their potency and availability. Microsomal preparations from pig liver were purchased from XenoTech (Kansas City, KS, US). Microsomes, buffer and NADPH generating system were combined, and then the inhibitor was added. The reaction was stopped after 35 min with ice cold acetonitrile containing internal standard (12-[[(cyclohexylamino)carbonyl]amino]-dodecanoic acid). The amount left of parent inhibitor was determined with LC-MS/MS.
# lung injury = test: histological evaluation of lung biopsies (four graded scale 0-3); assay type: in vivo, pig
# From the text: After euthanasia, the chest was opened and two approximately 2 × 1 × 1 cm pieces of lung tissue was cut from the left lung 3 cm from the hilus. One piece was immediately put in formaldehyde solution for later routine preparation for histological evaluation in hematoxylin and eosin staining. A pathologist, blinded for treatment group, evaluated the severity of lung injury in specimens on a four graded scale: 0 = no lung injury, 1 = mild lung injury, 2 = moderate lung injury and 3 = severe lung injury.
compound,measurement,setting,value
CCOCCOCCOCCCCCNC(=O)NC12CC3CC(CC(C3)C1)C2 [Compound 950],metabolic stability,[1],low
same,lungskada,"lung injury; histology score, per case, listed as sEH-i 950",3 and 2
same,Lung injury,"lung injury; histology, grade in words, per case, listed as sEH-i 950",Severe; also recorded: Moderate
same,Histological injury score,"lung injury; scale 0-3, AEPU group",2.7 (2–3)
